Test results from ChEMBL document CHEMBL1143055, “2,3,5-Substituted tetrahydrofurans as cancer chemopreventives. Part 1: synthesis and anti-cancer activities of 5-hydroxymethyl-2,3-diaryl-tetrahydro-furan-3-ols” (2007).

Experiments:
[1] = system: MCF7; assay: Antitumor activity against human MCF7 cells; type: functional
[2] = system: NCI/ADR-RES; assay: Antitumor activity against human NCI/ADR-RES cells; type: functional
[3] = Antitumor activity against human […] cells; type: functional
[4] = Antitumor activity against human HS 578T cells; type: functional
[5] = system: CCRF-CEM; assay: Antitumor activity against human CCRF-CEM cells; type: functional
[6] = Antitumor activity against human HL60 (TB) cells; type: functional, HL-60(TB); details: HL-60
[7] = system: K562; assay: Antitumor activity against human K562 cells; type: functional
[8] = system: MOLT-4; assay: Antitumor activity against human MOLT4 cells; type: functional
[9] = system: RPMI-8226; assay: Antitumor activity against human RPMI8226 cells; type: functional
[10] = system: SR; assay: Antitumor activity against human SR cells; type: functional
[11] = system: A549; assay: Antitumor activity against human A549 cells; type: functional
[12] = system: EKVX; assay: Antitumor activity against human EKVX cells; type: functional
[13] = system: HOP-62; assay: Antitumor activity against human HOP62 cells; type: functional
[14] = system: HOP-92; assay: Antitumor activity against human HOP92 cells; type: functional
[15] = system: NCI-H226; assay: Antitumor activity against human NCI-H226 cells; type: functional
[16] = system: NCI-H23; assay: Antitumor activity against human NCI-H23 cells; type: functional
[17] = Antitumor activity against human NCI-H322 cells; type: functional
[18] = system: NCI-H460; assay: Antitumor activity against human NCI-H460 cells; type: functional
[19] = system: NCI-H522; assay: Antitumor activity against human NCI-H522 cells; type: functional
[20] = system: COLO 205; assay: Antitumor activity against human COLO205 cells; type: functional
[21] = system: HCC 2998; assay: Antitumor activity against human HCC2998 cells; type: functional
[22] = system: HCT-116; assay: Antitumor activity against human HCT116 cells; type: functional
[23] = system: HCT-15; assay: Antitumor activity against human HCT15 cells; type: functional
[24] = system: HT-29; assay: Antitumor activity against human HT29 cells; type: functional
[25] = system: KM12; assay: Antitumor activity against human KM12 cells; type: functional
[26] = system: SW-620; assay: Antitumor activity against human SW620 cells; type: functional
[27] = system: SF-268; assay: Antitumor activity against human SF268 cells; type: functional
[28] = system: SF-295; assay: Antitumor activity against human SF295 cells; type: functional
[29] = system: SF-539; assay: Antitumor activity against human SF539 cells; type: functional
[30] = system: SNB-19; assay: Antitumor activity against human SNB19 cells; type: functional
[31] = system: SNB-75; assay: Antitumor activity against human SNB75 cells; type: functional
[32] = system: U-251; assay: Antitumor activity against human U251 cells; type: functional
[33] = system: LOX IMVI; assay: Antitumor activity against human LOX IMVI cells; type: functional
[34] = system: Malme-3M; assay: Antitumor activity against human MALME-3M cells; type: functional
[35] = system: SK-MEL-28; assay: Antitumor activity against human SK-MEL-28 cells; type: functional
[36] = system: SK-MEL-5; assay: Antitumor activity against human SK-MEL-5 cells; type: functional
[37] = system: UACC-257; assay: Antitumor activity against human UACC257 cells; type: functional
[38] = system: UACC-62; assay: Antitumor activity against human UACC62 cells; type: functional
[39] = system: IGROV-1; assay: Antitumor activity against human IGROV1 cells; type: functional
[40] = system: OVCAR-3; assay: Antitumor activity against human OVCAR-3 cells; type: functional
[41] = system: OVCAR-4; assay: Antitumor activity against human OVCAR4 cells; type: functional
[42] = system: OVCAR-5; assay: Antitumor activity against human OVCAR5 cells; type: functional
[43] = system: OVCAR-8; assay: Antitumor activity against human OVCAR8 cells; type: functional
[44] = system: SK-OV-3; assay: Antitumor activity against human SK-OV-3 cells; type: functional
[45] = system: 786-0; assay: Antitumor activity against human 786-0 cells; type: functional
[46] = system: A498; assay: Antitumor activity against human A498 cells; type: functional
[47] = system: ACHN; assay: Antitumor activity against human ACHN cells; type: functional
[48] = system: CAKI-1; assay: Antitumor activity against human CAKI-1 cells; type: functional
[49] = system: RXF 393; assay: Antitumor activity against human RXF393 cells; type: functional
[50] = system: SN12C; assay: Antitumor activity against human SN12C cells; type: functional
[51] = system: TK-10; assay: Antitumor activity against human TK10 cells; type: functional
[52] = system: UO-31; assay: Antitumor activity against human UO31 cells; type: functional
[53] = system: PC-3; assay: Antitumor activity against human PC3 cells; type: functional
[54] = system: DU-145; assay: Antitumor activity against human DU145 cells; type: functional
[55] = system: MDA-MB-435; assay: Antitumor activity against human MDA-MB-435 cells; type: functional
[56] = system: BT-549; assay: Antitumor activity against human BT549 cells; type: functional
[57] = system: CCRF-CEM; assay: Growth inhibition of huam CCRF-CEM at 1 uM; type: functional; details: Homo sapiens
[58] = system: SR; assay: Growth inhibition of human SR cells at 1 uM; type: functional
[59] = system: HOP-92; assay: Growth inhibition of human HOP92 cells at 10 nM; type: functional
[60] = Growth inhibition of human HS 578T cells at 0.1 uM; type: functional

COc1ccc([C@H]2O[C@@H](CO)C[C@]2(O)c2ccc(OC)cc2)cc1 (relative stereo)
GI50 [1]: > 100 µM
GI50 [2]: > 100 µM
GI50 [3]: > 100 µM
GI50 [4]: 39.8 µM
GI50 [5]: > 100 µM
GI50 [6]: 38.9 µM
GI50 [7]: > 100 µM
GI50 [8]: > 100 µM
GI50 [9]: > 100 µM
GI50 [10]: 50.1 µM
GI50 [11]: > 100 µM
GI50 [12]: > 100 µM
GI50 [13]: > 100 µM
GI50 [14]: 95.5 µM
GI50 [15]: > 100 µM
GI50 [16]: > 100 µM
GI50 [17]: > 100 µM
GI50 [18]: > 100 µM
GI50 [19]: > 100 µM
GI50 [20]: > 100 µM
GI50 [21]: > 100 µM
GI50 [22]: > 100 µM
GI50 [23]: > 100 µM
GI50 [24]: > 100 µM
GI50 [25]: > 100 µM
GI50 [26]: > 100 µM
GI50 [27]: > 100 µM
GI50 [28]: > 100 µM
GI50 [29]: > 100 µM
GI50 [30]: > 100 µM
GI50 [31]: > 100 µM
GI50 [32]: > 100 µM
GI50 [33]: > 100 µM
GI50 [34]: > 100 µM
GI50 [35]: > 100 µM
GI50 [36]: > 100 µM
GI50 [37]: > 100 µM
GI50 [38]: > 100 µM
GI50 [39]: > 100 µM
GI50 [40]: > 100 µM
GI50 [41]: > 100 µM
GI50 [42]: > 100 µM
GI50 [43]: > 100 µM
GI50 [44]: > 100 µM
GI50 [45]: > 100 µM
GI50 [46]: > 100 µM
GI50 [47]: > 100 µM
GI50 [48]: > 100 µM
GI50 [49]: 28.2 µM
GI50 [50]: > 100 µM
GI50 [51]: > 100 µM
GI50 [52]: > 100 µM
GI50 [53]: > 100 µM
GI50 [54]: > 100 µM
GI50 [55]: > 100 µM
GI50 [56]: > 100 µM
inhibition at 1 µM [57]: 46%
inhibition at 1 µM [58]: 36%

OC[C@H]1C[C@](O)(c2ccc(F)cc2)[C@@H](c2ccc(F)cc2)O1 (relative stereo)
GI50 [1]: > 100 µM
GI50 [2]: > 100 µM
GI50 [3]: > 100 µM
GI50 [4]: 44.7 µM
GI50 [5]: > 100 µM
GI50 [6]: > 100 µM
GI50 [7]: > 100 µM
GI50 [8]: 100 µM
GI50 [9]: > 100 µM
GI50 [10]: > 100 µM
GI50 [11]: > 100 µM
GI50 [12]: > 100 µM
GI50 [13]: > 100 µM
GI50 [14]: 66.1 µM
GI50 [15]: > 100 µM
GI50 [16]: > 100 µM
GI50 [17]: > 100 µM
GI50 [18]: > 100 µM
GI50 [19]: > 100 µM
GI50 [20]: > 100 µM
GI50 [21]: > 100 µM
GI50 [22]: 91.2 µM
GI50 [23]: > 100 µM
GI50 [24]: > 100 µM
GI50 [25]: > 100 µM
GI50 [26]: > 100 µM
GI50 [27]: > 100 µM
GI50 [28]: > 100 µM
GI50 [29]: > 100 µM
GI50 [30]: > 100 µM
GI50 [31]: > 100 µM
GI50 [32]: > 100 µM
GI50 [33]: > 100 µM
GI50 [34]: > 100 µM
GI50 [35]: > 100 µM
GI50 [36]: > 100 µM
GI50 [37]: > 100 µM
GI50 [38]: > 100 µM
GI50 [39]: 58.9 µM
GI50 [40]: > 100 µM
GI50 [41]: > 100 µM
GI50 [42]: > 100 µM
GI50 [43]: > 100 µM
GI50 [44]: > 100 µM
GI50 [45]: > 100 µM
GI50 [46]: > 100 µM
GI50 [47]: > 100 µM
GI50 [48]: > 100 µM
GI50 [49]: 52.5 µM
GI50 [50]: > 100 µM
GI50 [51]: > 100 µM
GI50 [52]: > 100 µM
GI50 [53]: > 100 µM
GI50 [54]: > 100 µM
GI50 [55]: > 100 µM
GI50 [56]: > 100 µM
inhibition at 0.01 µM [59]: 13%
inhibition at 0.1 µM [60]: 29%

O=c1[nH]cc(F)c(=O)[nH]1 [FLUOROURACIL]
GI50 [1]: 1.58 µM
GI50 [2]: 39.8 µM
GI50 [3]: 501 µM
GI50 [4]: 251 µM
GI50 [5]: 31.6 µM
GI50 [6]: 20 µM
GI50 [7]: 20 µM
GI50 [8]: 12.6 µM
GI50 [9]: 5.01 µM
GI50 [10]: 3.98 µM
GI50 [11]: 2 µM
GI50 [12]: 316 µM
GI50 [13]: 20 µM
GI50 [14]: 158 µM
GI50 [15]: 251 µM
GI50 [16]: 12.6 µM
GI50 [17]: 20 µM
GI50 [18]: 1 µM
GI50 [19]: 39.8 µM
GI50 [20]: 6.31 µM
GI50 [21]: 1.58 µM
GI50 [22]: 0.398 µM
GI50 [23]: 6.31 µM
GI50 [24]: 6.31 µM
GI50 [25]: 10 µM
GI50 [26]: 25.1 µM
GI50 [27]: 50.1 µM
GI50 [28]: 50.1 µM
GI50 [29]: 1.26 µM
GI50 [30]: 126 µM
GI50 [31]: 200 µM
GI50 [32]: 39.8 µM
GI50 [33]: 6.31 µM
GI50 [34]: 20 µM
GI50 [35]: 50.1 µM
GI50 [36]: 12.6 µM
GI50 [37]: 100 µM
GI50 [38]: 12.6 µM
GI50 [39]: 12.6 µM
GI50 [40]: 25.1 µM
GI50 [41]: 63.1 µM
GI50 [42]: 158 µM
GI50 [43]: 20 µM
GI50 [44]: 158 µM
GI50 [45]: 12.6 µM
GI50 [46]: 10 µM
GI50 [47]: 10 µM
GI50 [48]: 3.98 µM
GI50 [49]: 50.1 µM
GI50 [50]: 25.1 µM
GI50 [51]: 126 µM
GI50 [52]: 5.01 µM
GI50 [53]: 50.1 µM
GI50 [54]: 10 µM
GI50 [55]: 10 µM
GI50 [56]: 100 µM
